Assay results published in US20100222384A1 (priority 2009, published 2010).

Key:
[1] = tested on: Pichinde virus CoAn 3739 strain; format: cell-based
[2] = tested on: Junin virus Candid #1 strain; format: cell-based; conditions: read-out: EC50, Junin virus inhibition

Row | SMILES | PICV in vitro inhibition [1] | EC50 [2]
1 | CCCOCCCCCCN1C[C@H](O)[C@@H](O)[C@H](O)[C@H]1CO [N7-O-DNJ, N-(7-Oxadecyl)deoxynojirimycin] | 70% | 
2 | COCCCCCCCCCN1C[C@H](O)[C@@H](O)[C@H](O)[C@H]1CO [N9-DNJ, N-(9-Methoxynonyl)deoxynojirimycin] | over 99% | 
3 | [N-]=[N+]=Nc1ccc(NCCCCCCN2C[C@H](O)[C@@H](O)[C@H](O)[C@H]2CO)c([N+](=O)[O-])c1 [NAP-DNJ, N-(N-{4′-azido-2′-nitrophenyl}-6-aminohexyl)deoxynojirimycin] |  | 10 µM
4 | CCCCN1C[C@H](O)[C@@H](O)[C@H](O)[C@H]1CO [NB-DNJ, N-Butyl deoxynojirimycin] | over 50% | 350 µM
5 | CCCCCCCCCN1C[C@H](O)[C@@H](O)[C@H](O)[C@H]1CO [NN-DNJ, N-Nonyl deoxynojirimycin] |  | 60 µM
